Tests used:
[1] = system: Danio rerio embryo
Experimental: (§1)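 Zebrafish embryos (UFZ-OBI strain) were exposed from 2 hpf for 48 h (2 dpf) or 96 h (4 dpf) at 28 °C; spontaneous tail coiling was scored at 25 hpf. Morphological features from automated image analysis (FishInspector), heart rate and locomotor response were fitted with drc models. Quantal endpoints were dichotomised at 2.5 SD from controls and fitted with a log-logistic model; heart rate, pigmentation and STC were normalised to the replicate control mean. Betamethasone was tested as betamethasone dipropionate, diflorasone as diflorasone diacetate.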

[2] = system: Danio rerio embryo; details: exposure time: 4 dpf
Experimental: as §1

[3] = system: Danio rerio embryo; assay: EC50 Curvature_Increase
Experimental: as §1

[4] = system: Danio rerio embryo; assay: EC50 Body length_Decrease
Experimental: as §1

[5] = system: Danio rerio embryo; assay: EC50 Bladder size_Decrease; details: exposure time: 4 dpf
Experimental: as §1

[6] = system: Danio rerio embryo; assay: EC50 Pericard size_Increase; details: exposure time: 4 dpf
Experimental: as §1

[7] = system: Danio rerio embryo; assay: EC50 Yolk sac size_Increase; details: exposure time: 4 dpf
Experimental: as §1

[8] = system: Danio rerio embryo; assay: EC50 Eye-jaw distance_Decrease; details: exposure time: 4 dpf
Experimental: as §1

[9] = system: Danio rerio embryo; assay: EC50 Otolith-eye distance_Decrease; details: exposure time: 4 dpf
Experimental: as §1

[10] = system: Danio rerio embryo; assay: EC10 LMR dark; higher = less potent; details: exposure time: 4 dpf
Experimental: as §1

[11] = system: Danio rerio embryo; assay: EC20 LMR dark; higher = less potent; details: exposure time: 4 dpf
Experimental: as §1

[12] = system: Danio rerio embryo; assay: EC20 Any effect; higher = less potent
Experimental: as §1

[13] = system: Danio rerio embryo; assay: EC10 Any effect; higher = less potent
Experimental: as §1

[14] = system: Danio rerio embryo; assay: EC10 Curvature_Increase; higher = less potent
Experimental: as §1

[15] = system: Danio rerio embryo; assay: EC20 Curvature_Increase; higher = less potent
Experimental: as §1

[16] = system: Danio rerio embryo; assay: EC20 Body length_Decrease; higher = less potent
Experimental: as §1

[17] = system: Danio rerio embryo; assay: EC10 Body length_Decrease; higher = less potent
Experimental: as §1

[18] = system: Danio rerio embryo; assay: EC10 Bladder size_Decrease; higher = less potent; details: exposure time: 4 dpf
Experimental: as §1

[19] = system: Danio rerio embryo; assay: EC20 Bladder size_Decrease; higher = less potent; details: exposure time: 4 dpf
Experimental: as §1

[20] = system: Danio rerio embryo; assay: EC20 Yolk sac size_Increase; higher = less potent; details: exposure time: 4 dpf
Experimental: as §1

[21] = system: Danio rerio embryo; assay: EC20 Pericard size_Increase; higher = less potent; details: exposure time: 4 dpf
Experimental: as §1

[22] = system: Danio rerio embryo; assay: EC10 Yolk sac size_Increase; higher = less potent; details: exposure time: 4 dpf
Experimental: as §1

[23] = system: Danio rerio embryo; assay: EC10 Pericard size_Increase; higher = less potent; details: exposure time: 4 dpf
Experimental: as §1

[24] = system: Danio rerio embryo; assay: EC20 Eye-jaw distance_Decrease; higher = less potent; details: exposure time: 4 dpf
Experimental: as §1

[25] = system: Danio rerio embryo; assay: EC10 Eye-jaw distance_Decrease; higher = less potent; details: exposure time: 4 dpf
Experimental: as §1

[26] = system: Danio rerio embryo; assay: EC20 Otolith-eye distance_Decrease; higher = less potent; details: exposure time: 4 dpf
Experimental: as §1

[27] = system: Danio rerio embryo; assay: EC10 Otolith-eye distance_Decrease; higher = less potent; details: exposure time: 4 dpf
Experimental: as §1

[28] = system: Danio rerio embryo; assay: spontaneous tail coiling frequency (coils/min/embryo); higher = more spontaneous movement; details: 25 hpf
Experimental: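 Spontaneous tail coilings of zebrafish embryos exposed from 2 hpf were recorded at 24-25 hpf in 1-min videos and detected by a KNIME workflow from grey-value variance. Betamethasone was tested as the dipropionate, diflorasone as the diacetate.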

CCO/N=C(\CC)C1=C(O)CC(c2c(C)cc(C)cc2C)CC1=O (stereo not given) [Tralkoxydim]
Details | EC10 Any effect [µM] | EC10 Body length Decrease [µM] | EC10 Curvature Increase [µM] | EC20 Any effect [µM] | EC20 Body length Decrease [µM] | EC20 Curvature Increase [µM] | EC50 Any effect [µM] | EC50 Body length Decrease [µM] | EC50 Curvature Increase [µM] | EC50 Otolith [µM] | EC50 STC decrease [µM] | spontaneous tail coiling frequency
[1], exposure time: 2 dpf | – | – | – | – | – | – | 66 | – | – | 241 | – | –
[1], exposure time: 4 dpf | – | – | – | – | – | – | 68.9 | – | – | – | – | –
[1], exposure time: 25 h | – | – | – | – | – | – | – | – | – | – | 171 | –
[3], exposure time: 2 dpf | – | – | – | – | – | – | – | – | 98.7 | – | – | –
[3], exposure time: 4 dpf | – | – | – | – | – | – | – | – | 101 | – | – | –
[4], exposure time: 2 dpf | – | – | – | – | – | – | – | 66.2 | – | – | – | –
[4], exposure time: 4 dpf | – | – | – | – | – | – | – | 103 | – | – | – | –
[12], exposure time: 2 dpf | – | – | – | 47.2 | – | – | – | – | – | – | – | –
[12], exposure time: 4 dpf | – | – | – | 52.7 | – | – | – | – | – | – | – | –
[13], exposure time: 2 dpf | 38.8 | – | – | – | – | – | – | – | – | – | – | –
[13], exposure time: 4 dpf | 45.1 | – | – | – | – | – | – | – | – | – | – | –
[14], exposure time: 2 dpf | – | – | 77.4 | – | – | – | – | – | – | – | – | –
[14], exposure time: 4 dpf | – | – | 85.2 | – | – | – | – | – | – | – | – | –
[15], exposure time: 2 dpf | – | – | – | – | – | 84.7 | – | – | – | – | – | –
[15], exposure time: 4 dpf | – | – | – | – | – | 90.7 | – | – | – | – | – | –
[16], exposure time: 2 dpf | – | – | – | – | 45.5 | – | – | – | – | – | – | –
[16], exposure time: 4 dpf | – | – | – | – | 91.9 | – | – | – | – | – | – | –
[17], exposure time: 2 dpf | – | 36.6 | – | – | – | – | – | – | – | – | – | –
[17], exposure time: 4 dpf | – | 85.8 | – | – | – | – | – | – | – | – | – | –
[28], 30.4 µM | – | – | – | – | – | – | – | – | – | – | – | 2.43
[28], 60.7 µM | – | – | – | – | – | – | – | – | – | – | – | 2.33
[28], 91.1 µM | – | – | – | – | – | – | – | – | – | – | – | 4.43
[28], 121.4 µM | – | – | – | – | – | – | – | – | – | – | – | 3.17
[28], 151.8 µM | – | – | – | – | – | – | – | – | – | – | – | 1.92
[28], 197.3 µM | – | – | – | – | – | – | – | – | – | – | – | 0.957
[28], 258 µM | – | – | – | – | – | – | – | – | – | – | – | 0

Details | EC10 Bladder size Decrease [µM] | EC10 Eye-jaw distance Decrease [µM] | EC10 LMR dark [µM] | EC10 Otolith-eye distance Decrease [µM] | EC10 Pericard size Increase [µM] | EC10 Yolk sac size Increase [µM] | EC20 Bladder size Decrease [µM] | EC20 Eye-jaw distance Decrease [µM] | EC20 LMR dark [µM] | EC20 Otolith-eye distance Decrease [µM] | EC20 Pericard size Increase [µM] | EC20 Yolk sac size Increase [µM] | EC50 Bladder size Decrease [µM] | EC50 Eye-jaw distance Decrease [µM] | EC50 LMR dark [µM] | EC50 Otolith-eye distance Decrease [µM] | EC50 Pericard size Increase [µM] | EC50 Yolk sac size Increase [µM]
[2] | – | – | – | – | – | – | – | – | – | – | – | – | – | – | 85.8 | – | – | –
[5] | – | – | – | – | – | – | – | – | – | – | – | – | 61.3 | – | – | – | – | –
[6] | – | – | – | – | – | – | – | – | – | – | – | – | – | – | – | – | 106 | –
[7] | – | – | – | – | – | – | – | – | – | – | – | – | – | – | – | – | – | 65.3
[8] | – | – | – | – | – | – | – | – | – | – | – | – | – | 97.9 | – | – | – | –
[9] | – | – | – | – | – | – | – | – | – | – | – | – | – | – | – | 116 | – | –
[10] | – | – | 0.149 | – | – | – | – | – | – | – | – | – | – | – | – | – | – | –
[11] | – | – | – | – | – | – | – | – | 1.56 | – | – | – | – | – | – | – | – | –
[18] | 47.1 | – | – | – | – | – | – | – | – | – | – | – | – | – | – | – | – | –
[19] | – | – | – | – | – | – | 51.9 | – | – | – | – | – | – | – | – | – | – | –
[20] | – | – | – | – | – | – | – | – | – | – | – | 45.9 | – | – | – | – | – | –
[21] | – | – | – | – | – | – | – | – | – | – | 104 | – | – | – | – | – | – | –
[22] | – | – | – | – | – | 37.4 | – | – | – | – | – | – | – | – | – | – | – | –
[23] | – | – | – | – | 103 | – | – | – | – | – | – | – | – | – | – | – | – | –
[24] | – | – | – | – | – | – | – | 89 | – | – | – | – | – | – | – | – | – | –
[25] | – | 84.3 | – | – | – | – | – | – | – | – | – | – | – | – | – | – | – | –
[26] | – | – | – | – | – | – | – | – | – | 89.6 | – | – | – | – | – | – | – | –
[27] | – | – | – | 77.1 | – | – | – | – | – | – | – | – | – | – | – | – | – | –
